Laboratory results taken from patent US10351575B2, “Bicyclic urea, thiourea, guanidine and cyanoguanidine compounds useful for the treatment of pain” (Array BioPharma Inc., priority 2012, dated 2019).

Assays:
Experiment in all cases: KinaseProfiler off-target kinase profiling
Format in all cases: biochemical
Details in all cases: 10 μM, ATP near Km
CAMK4 = CAMK4 (Homo sapiens (Human), UniProt Q16566)
In short: (§1)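 ATP was held near each kinase's Km while compound was present at 10 μM. Runs were done twice, and values are the average percent of control.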

MAPKAP-K5 = MAPKAP-K5 (Homo sapiens (Human), UniProt Q8IW41)
In short: as §1

SRPK1 = SRPK1 (Homo sapiens (Human), UniProt Q96SB4)
In short: as §1

DAPK1 = DAPK1 (Homo sapiens (Human), UniProt P53355)
In short: as §1

CDK3/cyclinE = CDK3/cyclinE (Homo sapiens (Human), UniProt Q00526)
In short: as §1

PDGFRalpha = PDGFRalpha (Homo sapiens (Human), UniProt P16234)
In short: as §1

PKCbetaI = PKCbetaI (Homo sapiens (Human), UniProt P05771)
In short: as §1

EphB1 = EphB1 (Homo sapiens (Human), UniProt P54762)
In short: as §1

LIMK1 = LIMK1 (Homo sapiens (Human), UniProt P53667)
In short: as §1

KDR = KDR (Homo sapiens (Human), UniProt P35968)
In short: as §1

AKT3 = AKT3 (Homo sapiens (Human), UniProt Q9Y243)
In short: as §1

MLK1 = MLK1 (Homo sapiens (Human), UniProt P80192)
In short: as §1

CDK5/p25 = CDK5/p25 (Homo sapiens (Human), UniProt Q00535)
In short: as §1

PhKgamma2 = PhKgamma2 (Homo sapiens (Human), UniProt P15735)
In short: as §1

Fer = Fer (Homo sapiens (Human), UniProt P16591)
In short: as §1

BrSK2 = BrSK2 (Homo sapiens (Human), UniProt Q8IWQ3)
In short: as §1

LOK = LOK (Homo sapiens (Human), UniProt O94804)
In short: as §1

ErbB4 = ErbB4 (Homo sapiens (Human), UniProt Q15303)
In short: as §1

SGK2 = SGK2 (Homo sapiens (Human), UniProt Q9HBY8)
In short: as §1

CAMK2g = CAMK2g (Homo sapiens (Human), UniProt Q13555)
In short: as §1

IR Activated = IR Activated (Homo sapiens (Human), UniProt P06213)
In short: as §1

CAMK2b = CAMK2b (Homo sapiens (Human), UniProt Q13554)
In short: as §1

CDK6/cyclinD3 = CDK6/cyclinD3 (Homo sapiens (Human), UniProt Q00534)
In short: as §1

AMPK(A1/B1/G1) = AMPK(A1/B1/G1) (Homo sapiens (Human), UniProt Q13131)
In short: as §1

CK1gamma2 = CK1gamma2 (Homo sapiens (Human), UniProt P78368)
In short: as §1

CK2alpha2 = CK2alpha2 (Homo sapiens (Human), UniProt P19784)
In short: as §1

IKKbeta = IKKbeta (Homo sapiens (Human), UniProt O14920)
In short: as §1

GRK6 = GRK6 (Homo sapiens (Human), UniProt P43250)
In short: as §1

FAK = FAK (Homo sapiens (Human), UniProt Q05397)
In short: as §1

IRAK1 = IRAK1 (Homo sapiens (Human), UniProt P51617)
In short: as §1

Pim-1 = Pim-1 (Homo sapiens (Human), UniProt P11309)
In short: as §1

MRCKbeta = MRCKbeta (Homo sapiens (Human), UniProt Q9Y5S2)
In short: as §1

MYLK = MYLK (Homo sapiens (Human), UniProt Q15746)
In short: as §1

BrSK1 = BrSK1 (Homo sapiens (Human), UniProt Q8TDC3)
In short: as §1

MSK2 = MSK2 (Homo sapiens (Human), UniProt O75676)
In short: as §1

Fes = Fes (Homo sapiens (Human), UniProt P07332)
In short: as §1

CLK2 = CLK2 (Homo sapiens (Human), UniProt P49760)
In short: as §1

PAK5 = PAK5 (Homo sapiens (Human), UniProt Q9P286)
In short: as §1

JAK2 = JAK2 (Homo sapiens (Human), UniProt O60674)
In short: as §1

Sequence of KDR (P35968 20-1356): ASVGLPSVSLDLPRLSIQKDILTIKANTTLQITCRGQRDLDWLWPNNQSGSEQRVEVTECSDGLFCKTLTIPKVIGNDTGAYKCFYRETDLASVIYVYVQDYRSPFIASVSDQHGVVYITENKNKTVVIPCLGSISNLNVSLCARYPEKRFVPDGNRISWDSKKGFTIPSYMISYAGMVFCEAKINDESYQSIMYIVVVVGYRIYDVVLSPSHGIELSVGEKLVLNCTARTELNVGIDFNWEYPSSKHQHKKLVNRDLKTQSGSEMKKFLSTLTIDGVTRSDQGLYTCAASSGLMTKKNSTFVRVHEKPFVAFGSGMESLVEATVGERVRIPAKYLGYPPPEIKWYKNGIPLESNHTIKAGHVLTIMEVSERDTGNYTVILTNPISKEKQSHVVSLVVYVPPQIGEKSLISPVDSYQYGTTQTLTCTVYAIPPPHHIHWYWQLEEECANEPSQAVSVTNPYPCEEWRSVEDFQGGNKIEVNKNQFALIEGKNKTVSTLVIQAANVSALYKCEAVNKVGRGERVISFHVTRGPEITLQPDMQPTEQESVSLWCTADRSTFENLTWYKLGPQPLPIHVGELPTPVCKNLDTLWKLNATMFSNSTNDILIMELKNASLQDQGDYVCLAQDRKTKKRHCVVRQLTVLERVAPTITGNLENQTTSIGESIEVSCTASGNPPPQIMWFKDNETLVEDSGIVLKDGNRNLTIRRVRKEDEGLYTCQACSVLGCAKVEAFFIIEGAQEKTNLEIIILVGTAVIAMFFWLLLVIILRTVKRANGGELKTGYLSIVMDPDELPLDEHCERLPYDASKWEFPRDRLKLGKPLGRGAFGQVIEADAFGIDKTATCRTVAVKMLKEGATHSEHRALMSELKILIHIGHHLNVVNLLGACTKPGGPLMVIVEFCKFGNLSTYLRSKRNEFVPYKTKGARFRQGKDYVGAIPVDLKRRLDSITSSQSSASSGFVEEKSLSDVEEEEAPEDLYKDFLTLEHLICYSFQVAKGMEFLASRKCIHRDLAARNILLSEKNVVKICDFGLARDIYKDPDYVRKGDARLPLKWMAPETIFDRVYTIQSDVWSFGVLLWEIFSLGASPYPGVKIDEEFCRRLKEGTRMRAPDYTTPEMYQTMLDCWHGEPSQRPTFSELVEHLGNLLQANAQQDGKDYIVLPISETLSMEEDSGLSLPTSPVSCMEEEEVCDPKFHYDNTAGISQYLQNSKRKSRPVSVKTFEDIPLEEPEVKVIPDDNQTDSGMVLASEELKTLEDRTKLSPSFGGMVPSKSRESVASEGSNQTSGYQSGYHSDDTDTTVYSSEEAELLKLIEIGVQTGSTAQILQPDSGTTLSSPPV
Sequence of Pim-1 (P11309 whole entry): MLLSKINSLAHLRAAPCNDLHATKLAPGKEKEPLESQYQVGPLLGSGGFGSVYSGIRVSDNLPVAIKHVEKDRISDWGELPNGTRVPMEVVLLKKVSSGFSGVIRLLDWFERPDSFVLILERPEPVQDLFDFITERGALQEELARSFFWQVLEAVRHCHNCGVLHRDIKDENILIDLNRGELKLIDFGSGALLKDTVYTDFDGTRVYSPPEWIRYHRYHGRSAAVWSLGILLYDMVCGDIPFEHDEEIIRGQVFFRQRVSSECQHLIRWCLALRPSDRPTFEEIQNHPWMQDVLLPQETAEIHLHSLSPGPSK
Sequence of CDK5/p25 (Q00535 whole entry): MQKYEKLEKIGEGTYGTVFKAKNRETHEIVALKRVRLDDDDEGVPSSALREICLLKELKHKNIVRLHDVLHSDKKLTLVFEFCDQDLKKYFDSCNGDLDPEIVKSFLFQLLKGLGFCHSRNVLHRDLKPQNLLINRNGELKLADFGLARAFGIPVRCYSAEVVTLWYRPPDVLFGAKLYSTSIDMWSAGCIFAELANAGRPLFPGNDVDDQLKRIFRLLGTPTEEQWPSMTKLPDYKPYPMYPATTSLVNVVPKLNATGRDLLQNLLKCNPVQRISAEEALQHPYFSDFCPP
Sequence of CDK5/p25 (Q15078 99-307 partner): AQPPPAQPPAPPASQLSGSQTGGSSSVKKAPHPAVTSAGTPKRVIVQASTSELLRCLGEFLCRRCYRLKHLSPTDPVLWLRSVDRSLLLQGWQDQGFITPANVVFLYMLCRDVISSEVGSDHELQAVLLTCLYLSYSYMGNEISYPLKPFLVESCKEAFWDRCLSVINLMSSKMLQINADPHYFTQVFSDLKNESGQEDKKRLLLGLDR
Sequence of Fes (P07332 whole entry): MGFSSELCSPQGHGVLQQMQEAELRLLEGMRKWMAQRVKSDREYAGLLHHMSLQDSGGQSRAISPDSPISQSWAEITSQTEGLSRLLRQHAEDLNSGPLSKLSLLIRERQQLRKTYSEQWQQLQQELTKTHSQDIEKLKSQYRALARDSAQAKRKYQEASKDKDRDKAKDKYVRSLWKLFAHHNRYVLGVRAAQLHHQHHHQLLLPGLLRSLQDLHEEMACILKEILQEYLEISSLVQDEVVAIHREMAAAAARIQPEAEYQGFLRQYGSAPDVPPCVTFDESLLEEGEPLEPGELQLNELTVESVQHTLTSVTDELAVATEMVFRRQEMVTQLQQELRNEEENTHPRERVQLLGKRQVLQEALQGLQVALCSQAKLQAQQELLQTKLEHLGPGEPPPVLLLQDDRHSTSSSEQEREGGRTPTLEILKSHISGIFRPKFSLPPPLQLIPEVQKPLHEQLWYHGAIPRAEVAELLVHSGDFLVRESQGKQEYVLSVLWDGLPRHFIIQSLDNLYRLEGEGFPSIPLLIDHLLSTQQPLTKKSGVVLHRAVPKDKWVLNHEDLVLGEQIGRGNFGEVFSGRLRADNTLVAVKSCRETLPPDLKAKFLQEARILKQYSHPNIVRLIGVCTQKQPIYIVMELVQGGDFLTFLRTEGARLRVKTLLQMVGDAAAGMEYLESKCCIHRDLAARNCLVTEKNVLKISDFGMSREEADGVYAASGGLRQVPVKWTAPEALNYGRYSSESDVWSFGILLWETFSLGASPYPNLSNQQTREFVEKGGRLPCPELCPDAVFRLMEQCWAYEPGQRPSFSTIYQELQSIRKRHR
Sequence of DAPK1 (P53355 whole entry): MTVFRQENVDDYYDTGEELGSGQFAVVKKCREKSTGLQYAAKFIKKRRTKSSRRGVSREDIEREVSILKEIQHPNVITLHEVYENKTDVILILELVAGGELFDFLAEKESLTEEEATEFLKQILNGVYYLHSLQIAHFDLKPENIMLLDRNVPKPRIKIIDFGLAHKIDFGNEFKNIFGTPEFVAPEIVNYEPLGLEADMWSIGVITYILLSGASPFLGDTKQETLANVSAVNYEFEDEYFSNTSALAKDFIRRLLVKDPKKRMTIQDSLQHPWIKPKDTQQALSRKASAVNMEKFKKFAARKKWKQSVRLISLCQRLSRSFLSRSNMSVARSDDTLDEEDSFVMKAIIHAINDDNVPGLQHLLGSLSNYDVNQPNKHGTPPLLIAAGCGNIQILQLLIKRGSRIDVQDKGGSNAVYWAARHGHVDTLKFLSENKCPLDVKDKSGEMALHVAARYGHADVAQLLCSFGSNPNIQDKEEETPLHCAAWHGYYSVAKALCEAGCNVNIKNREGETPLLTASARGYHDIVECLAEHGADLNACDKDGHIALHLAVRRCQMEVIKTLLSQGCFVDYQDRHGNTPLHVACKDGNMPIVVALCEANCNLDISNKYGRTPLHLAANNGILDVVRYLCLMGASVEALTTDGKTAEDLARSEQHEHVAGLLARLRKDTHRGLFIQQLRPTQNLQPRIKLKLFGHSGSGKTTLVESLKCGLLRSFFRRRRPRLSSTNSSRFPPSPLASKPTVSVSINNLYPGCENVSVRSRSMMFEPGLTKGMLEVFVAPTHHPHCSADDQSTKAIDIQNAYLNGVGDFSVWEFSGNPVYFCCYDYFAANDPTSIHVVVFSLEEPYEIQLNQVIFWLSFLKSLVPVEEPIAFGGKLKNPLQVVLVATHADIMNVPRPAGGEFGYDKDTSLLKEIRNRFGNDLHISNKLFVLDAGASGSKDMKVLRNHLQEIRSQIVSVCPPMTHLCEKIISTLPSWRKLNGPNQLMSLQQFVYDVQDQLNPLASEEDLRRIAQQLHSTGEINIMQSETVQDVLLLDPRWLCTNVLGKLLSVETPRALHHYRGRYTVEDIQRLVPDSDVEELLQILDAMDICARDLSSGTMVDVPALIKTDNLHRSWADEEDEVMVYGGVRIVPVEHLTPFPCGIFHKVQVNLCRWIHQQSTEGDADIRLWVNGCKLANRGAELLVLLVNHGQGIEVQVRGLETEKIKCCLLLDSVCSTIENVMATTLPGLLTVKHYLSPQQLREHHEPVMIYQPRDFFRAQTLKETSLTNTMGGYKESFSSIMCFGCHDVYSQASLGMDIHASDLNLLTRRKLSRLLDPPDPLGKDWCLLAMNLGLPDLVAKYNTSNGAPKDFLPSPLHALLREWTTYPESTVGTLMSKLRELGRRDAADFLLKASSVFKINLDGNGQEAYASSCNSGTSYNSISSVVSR
Sequence of GRK6 (P43250 whole entry): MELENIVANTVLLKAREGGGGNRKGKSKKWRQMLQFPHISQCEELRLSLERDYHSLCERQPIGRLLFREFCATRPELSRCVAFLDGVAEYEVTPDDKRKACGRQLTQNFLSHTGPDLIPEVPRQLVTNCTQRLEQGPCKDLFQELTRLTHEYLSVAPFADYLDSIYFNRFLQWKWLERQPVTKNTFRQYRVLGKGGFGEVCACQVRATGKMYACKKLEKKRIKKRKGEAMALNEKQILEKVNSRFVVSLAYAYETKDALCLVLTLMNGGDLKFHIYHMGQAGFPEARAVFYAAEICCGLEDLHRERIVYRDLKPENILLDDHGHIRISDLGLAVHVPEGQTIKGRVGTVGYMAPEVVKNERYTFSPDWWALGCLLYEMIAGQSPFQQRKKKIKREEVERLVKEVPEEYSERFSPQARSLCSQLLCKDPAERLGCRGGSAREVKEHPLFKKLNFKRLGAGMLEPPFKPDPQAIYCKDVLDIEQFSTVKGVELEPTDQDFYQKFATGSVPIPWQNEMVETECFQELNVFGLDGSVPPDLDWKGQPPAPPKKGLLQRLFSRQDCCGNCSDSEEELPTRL

For `Cc1c(-c2cnn(C)c2)nn(-c2ccccc2)c1NC(=O)N[C@H]1CCCc2ccccc21` [Example 2, (S)-1-(1′,4-dimethyl-1-phenyl-1H,1′H-3,4′-bipyrazol-5-yl)-3-(1,2,3,4-tetrahydronaphthalen-1-yl)urea], the “Avg. POC” value (CAMK4) was 137.5 POC, the “Avg. POC” value (MAPKAP-K5) was 113.5 POC and the “Avg. POC” value (SRPK1) was 122 POC. For the same compound, the “Avg. POC” value (DAPK1) was 108.5 POC, the “Avg. POC” value (CDK3/cyclinE) was 105.5 POC and the “Avg. POC” value (PDGFRalpha) was 123 POC. For the same compound, the “Avg. POC” value (PKCbetaI) was 99 POC, the “Avg. POC” value (EphB1) was 108.5 POC and the “Avg. POC” value (LIMK1) was 105 POC. The “Avg. POC” value (KDR) was 123.5 POC, the “Avg. POC” value (AKT3) was 116.5 POC and the “Avg. POC” value (MLK1) was 75 POC. The “Avg. POC” value (CDK5/p25) was 107.5 POC, the “Avg. POC” value (PhKgamma2) was 113 POC and the “Avg. POC” value (Fer) was 110.5 POC. The “Avg. POC” value (BrSK2) was 139.5 POC, the “Avg. POC” value (LOK) was 109.5 POC and the “Avg. POC” value (ErbB4) was 148 POC. The “Avg. POC” value (SGK2) was 166.5 POC, the “Avg. POC” value (CAMK2g) was 107.5 POC and the “Avg. POC” value (IR Activated) was 103 POC. For the same compound, the “Avg. POC” value (CAMK2b) was 106.5 POC, the “Avg. POC” value (CDK6/cyclinD3) was 100 POC and the “Avg. POC” value (AMPK(A1/B1/G1)) was 152.5 POC. The “Avg. POC” value (CK1gamma2) was 142.5 POC, the “Avg. POC” value (CK2alpha2) was 125 POC and the “Avg. POC” value (IKKbeta) was 116 POC. For the same compound, the “Avg. POC” value (GRK6) was 103.5 POC, the “Avg. POC” value (FAK) was 116.5 POC and the “Avg. POC” value (IRAK1) was 107 POC. The “Avg. POC” value (Pim-1) was 173 POC, the “Avg. POC” value (MRCKbeta) was 129.5 POC and the “Avg. POC” value (MYLK) was 100 POC. The “Avg. POC” value (BrSK1) was 119 POC, the “Avg. POC” value (MSK2) was 112 POC and the “Avg. POC” value (Fes) was 129.5 POC. The “Avg. POC” value (CLK2) was 115.5 POC, the “Avg. POC” value (PAK5) was 109.5 POC and the “Avg. POC” value (JAK2) was 233 POC.
For `Cc1c(-c2cnn(C)c2)nn(-c2ccccc2)c1NC(=O)NC1CCOc2cc(F)ccc21` (stereo not drawn) [Example 12, 1-(1′,4-dimethyl-1-phenyl-1H,1′H-[3,4′-bipyrazol]-5-yl)-3-(7-fluorochroman-4-yl)urea], the “Avg. POC” value (CAMK4) was 113.5 POC, the “Avg. POC” value (MAPKAP-K5) was 96 POC and the “Avg. POC” value (SRPK1) was 97.5 POC. For the same compound, the “Avg. POC” value (DAPK1) was 136 POC, the “Avg. POC” value (CDK3/cyclinE) was 98.5 POC and the “Avg. POC” value (PDGFRalpha) was 104.5 POC. For the same compound, the “Avg. POC” value (PKCbetaI) was 93.5 POC, the “Avg. POC” value (EphB1) was 114 POC and the “Avg. POC” value (LIMK1) was 97.5 POC. The “Avg. POC” value (KDR) was 119.5 POC, the “Avg. POC” value (AKT3) was 94 POC and the “Avg. POC” value (MLK1) was 103.5 POC. The “Avg. POC” value (CDK5/p25) was 104 POC, the “Avg. POC” value (PhKgamma2) was 110 POC and the “Avg. POC” value (Fer) was 100.5 POC. For the same compound, the “Avg. POC” value (BrSK2) was 147 POC, the “Avg. POC” value (LOK) was 116 POC and the “Avg. POC” value (ErbB4) was 122 POC. For the same compound, the “Avg. POC” value (SGK2) was 148 POC, the “Avg. POC” value (CAMK2g) was 107.5 POC and the “Avg. POC” value (IR Activated) was 109 POC. For the same compound, the “Avg. POC” value (CAMK2b) was 106 POC, the “Avg. POC” value (CDK6/cyclinD3) was 103 POC and the “Avg. POC” value (AMPK(A1/B1/G1)) was 117 POC. The “Avg. POC” value (CK1gamma2) was 114.5 POC, the “Avg. POC” value (CK2alpha2) was 107.5 POC and the “Avg. POC” value (IKKbeta) was 102 POC. The “Avg. POC” value (GRK6) was 103 POC, the “Avg. POC” value (FAK) was 104 POC and the “Avg. POC” value (IRAK1) was 102.5 POC. For the same compound, the “Avg. POC” value (Pim-1) was 106 POC, the “Avg. POC” value (MRCKbeta) was 103.5 POC and the “Avg. POC” value (MYLK) was 99 POC. For the same compound, the “Avg. POC” value (BrSK1) was 111.5 POC, the “Avg. POC” value (MSK2) was 127 POC and the “Avg. POC” value (Fes) was 110 POC. For the same compound, the “Avg. POC” value (CLK2) was 100 POC, the “Avg. POC” value (PAK5) was 143 POC and the “Avg. POC” value (JAK2) was 122.5 POC.
